Laboratory results as given in patent publication US10722520B2, “Heterocyclic compounds and their use in preventing or treating bacterial infections” (MUTABILIS, priority 2016, dated 2020).
pIC50: −log10 of the molar value. Where a name gives a salt, the structure may show the parent alone. Read-outs that look alike come from different tables or passages of the source.

Legend:
KPC-2 = KPC-2 (Klebsiella pneumoniae, UniProt Q9F663)
CMY-37 = CMY-37 (Citrobacter freundii, UniProt P05193); conditions: read-out: IC50 β-lactamase CMY-37
TEM-1 = TEM-1 (Escherichia coli, UniProt P62593)
OXA-15 = OXA-15 (Pseudomonas aeruginosa, UniProt Q51574); assay: biochemical
SHV-1 = SHV-1 (Klebsiella pneumoniae, UniProt P0AD64)
E. cloacae P99 = assay: MIC of compound alone, broth microdilution; format: cell-based; conditions: Enterobacter cloacae; strain P99; compound alone; read-out: MIC compounds of the invention alone
In short: (§1)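 Log-phase bacteria were diluted to a final 5×10^5 cfu/mL in cation-adjusted Mueller-Hinton broth and incubated 16-20 h at 35° C in ambient air. MIC was taken as the lowest concentration preventing growth, judged visually.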

P. aeruginosa CIP107051 = assay: MIC of compound alone, broth microdilution; format: cell-based; conditions: Pseudomonas aeruginosa; strain CIP107051; compound alone; read-out: MIC compounds of the invention alone
In short: as §1

K. pneumoniae 6299 = assay: MIC of compound alone, broth microdilution; format: cell-based; conditions: Klebsiella pneumoniae; strain 6299; compound alone; read-out: MIC compounds of the invention alone
In short: as §1

E. coli 190317 = assay: MIC of compound alone, broth microdilution; format: cell-based; conditions: Escherichia coli; strain 190317; compound alone; read-out: MIC compounds of the invention alone
In short: as §1

K. pneumoniae BAA-1898 = assay: MIC of compound alone, broth microdilution; format: cell-based; conditions: Klebsiella pneumoniae, BAA1898; strain BAA-1898; compound alone; read-out: MIC compounds of the invention alone
In short: as §1

AmpC (P99) = AmpC (P99) (Enterobacter cloacae, UniProt P05364); assay: biochemical
AmpC (PAE) = AmpC (PAE) (Pseudomonas aeruginosa, UniProt P24735); assay: biochemical
OXA-1 = OXA-1 (Escherichia coli, UniProt P13661)
OXA-48 = OXA-48 (Klebsiella pneumoniae, UniProt Q6XEC0)
OXA-11 = OXA-11 (Pseudomonas aeruginosa, UniProt Q06778)
CTX-M-15 = CTX-M-15 (Escherichia coli, UniProt Q9EXV5)
[1] = class (C), nitrocefin 200 μM, 30-min pre-incubation, enzyme 0.2 nM

NC(=O)CNCc1cn(C2=CC3CN(C2)C(=O)N3OS(=O)(=O)O)nn1 (stereo not drawn) [Example 66, [3-(4-(2-(methylamino)acetamide)triazol-1-yl)-7-oxo-1,6-diazabicyclo[3.2.1]oct-3-en-6-yl]hydrogen sulfate]
pIC50 (KPC-2): 8.21
pIC50 (CMY-37; [1]): 7.59
pIC50 (TEM-1): 9.44
pIC50 (OXA-15): 8.12
pIC50 (SHV-1): 8.51
MIC (E. cloacae P99): 8 µg/mL
MIC (P. aeruginosa CIP107051): > 32 µg/mL
MIC (K. pneumoniae 6299): 32 µg/mL
MIC (E. coli 190317): 4 µg/mL
MIC (K. pneumoniae BAA-1898): 16 µg/mL
pIC50 (AmpC (P99)): 7.85
pIC50 (AmpC (PAE)): 6.60
pIC50 (OXA-1): 7.06
pIC50 (OXA-48): 9.19
pIC50 (OXA-11): 6.85
pIC50 (CTX-M-15): 9.27

O=C1N2CC(n3cc(CNCCO)nn3)=CC(C2)N1OS(=O)(=O)O (stereo not drawn) [Example 67, [3-(4-(2-(methylamino)ethanol)triazol-1-yl)-7-oxo-1,6-diazabicyclo[3.2.1]oct-3-en-6-yl]hydrogen sulfate]
pIC50 (KPC-2): 7.70
pIC50 (CMY-37; [1]): 7.00
pIC50 (TEM-1): 8.92
pIC50 (OXA-15): 7.74
pIC50 (SHV-1): 8.08
MIC (E. cloacae P99): 4 µg/mL
MIC (P. aeruginosa CIP107051): > 32 µg/mL
MIC (K. pneumoniae 6299): > 32 µg/mL
MIC (E. coli 190317): 2 µg/mL
MIC (K. pneumoniae BAA-1898): > 32 µg/mL
pIC50 (AmpC (P99)): 7.42
pIC50 (AmpC (PAE)): 6.14
pIC50 (OXA-1): 6.57
pIC50 (OXA-48): 8.80
pIC50 (OXA-11): 6.60
pIC50 (CTX-M-15): 8.89

O=C1N2CC(n3nccc3CCO)=CC(C2)N1OS(=O)(=O)[O-].[Na+] (stereo not drawn) [Example 68, sodium [3-[5-(2-hydroxyethyl)pyrazol-1-yl]-7-oxo-1,6-diazabicyclo[3.2.1]oct-3-en-6-yl]sulfate]
pIC50 (KPC-2): 6.52
pIC50 (CMY-37): 6.89
pIC50 (TEM-1): 9.14
pIC50 (OXA-15): 5.39
pIC50 (SHV-1): 8.55
MIC (E. cloacae P99): > 32 µg/mL
MIC (P. aeruginosa CIP107051): > 32 µg/mL
MIC (K. pneumoniae 6299): > 32 µg/mL
MIC (E. coli 190317): > 32 µg/mL
MIC (K. pneumoniae BAA-1898): > 32 µg/mL
pIC50 (AmpC (P99)): 6.77
pIC50 (AmpC (PAE)): 6.37
pIC50 (OXA-1): 5.92
pIC50 (OXA-48): 7.31
pIC50 (OXA-11): 5.41
pIC50 (CTX-M-15): 8.15

O=C1N2CC(n3ccnc3CO)=CC(C2)N1OS(=O)(=O)[O-].[Na+] (stereo not drawn) [Example 70, sodium [3-[2-(hydroxymethyl)imidazol-1-yl]-7-oxo-1,6-diazabicyclo[3.2.1]oct-3-en-6-yl]sulfate]
pIC50 (KPC-2): 7.29
pIC50 (CMY-37): 6.92
pIC50 (TEM-1): 9.20
pIC50 (OXA-15): 7.52
pIC50 (SHV-1): 8.64
MIC (E. cloacae P99): > 32 µg/mL
MIC (P. aeruginosa CIP107051): > 32 µg/mL
MIC (K. pneumoniae 6299): > 32 µg/mL
MIC (E. coli 190317): 32 µg/mL
MIC (K. pneumoniae BAA-1898): 32 µg/mL
pIC50 (AmpC (P99)): 7.03
pIC50 (AmpC (PAE)): 6.22
pIC50 (OXA-1): 7.04
pIC50 (OXA-48): 8.21
pIC50 (OXA-11): 6.77
pIC50 (CTX-M-15): 8.46

O=C1N2CC(n3cc(CO)cn3)=CC(C2)N1OS(=O)(=O)[O-].[Na+] (stereo not drawn) [Example 71, sodium [3-[4-(hydroxymethyl)pyrazol-1-yl]-7-oxo-1,6-diazabicyclo[3.2.1]oct-3-en-6-yl]sulfate]
pIC50 (KPC-2): 7.38
pIC50 (CMY-37): 8.00
pIC50 (TEM-1): 8.85
pIC50 (OXA-15): 7.26
pIC50 (SHV-1): 8.02
MIC (E. cloacae P99): 16 µg/mL
MIC (P. aeruginosa CIP107051): > 32 µg/mL
MIC (K. pneumoniae 6299): 32 µg/mL
MIC (E. coli 190317): 4 µg/mL
MIC (K. pneumoniae BAA-1898): 16 µg/mL
pIC50 (AmpC (P99)): 7.72
pIC50 (AmpC (PAE)): 7.33
pIC50 (OXA-1): 6.35
pIC50 (OXA-48): 7.92
pIC50 (OXA-11): 6.59
pIC50 (CTX-M-15): 9.11

O=C(NCCN1CCOCC1)c1ccn(C2=CC3CN(C2)C(=O)N3OS(=O)(=O)O)n1 (stereo not drawn) [Example 72, [3-[3-(2-morpholinoethylcarbamoyl)pyrazol-1-yl]-7-oxo-1,6-diazabicyclo[3.2.1]oct-3-en-6-yl]hydrogen sulfate]
pIC50 (KPC-2): 8.15
pIC50 (CMY-37; [1]): 7.07
pIC50 (TEM-1): 9.04
pIC50 (OXA-15): 7.37
pIC50 (SHV-1): 8.17
MIC (E. cloacae P99): > 32 µg/mL
MIC (P. aeruginosa CIP107051): > 32 µg/mL
MIC (K. pneumoniae 6299): > 32 µg/mL
MIC (E. coli 190317): > 32 µg/mL
MIC (K. pneumoniae BAA-1898): > 32 µg/mL
pIC50 (AmpC (P99)): 7.37
pIC50 (AmpC (PAE)): 6.27
pIC50 (OXA-1): 7.00
pIC50 (OXA-48): 8.60
pIC50 (OXA-11): 7.44
pIC50 (CTX-M-15): 9.24
